The target in experiment [1] is Full length human recombinant PIKFYVE (Homo sapiens (Human), UniProt Q9Y2I7). Kind of experiment: Inhibition of PIKfyve (microfluidic electrophoresis kinase assay). Type of experiment: biochemical. The conditions noted are these: 2 nM enzyme, PI3P/PS substrate, 3 h at room temperature, 12 concentrations. A digest of the protocol: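 GST-tagged full-length PIKfyve (baculovirus-expressed, 2 nM final) with fluorescent PI3P/PS substrate (1 μM PI3P) and […] in HEPES pH 7.5 with Mg2+/Mn2+, 1% DMSO, 3 h at room temperature; 12 concentrations. PI(3,5)P product and substrate separated by microfluidic electrophoresis; % inhibition from product/sum ratio.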

The test system of experiment [2] is C9 iPSC MN (ALS patient derived motor neurons). Kind of experiment: iPSC MN Survival assay. It is filed as cell-based, human. The following applies: for EC50: Homo sapiens, iPSC, 144 h, motor neurons in nutrient deprived media (HBSS), six days, GFP imaging, read-out: C9 iPSC MN Significant survival rescue EC50; for C9 iPSC MN Survival hazard ratio: maximal reduction in hazard ratio vs control (Cox regression), <1.0 indicates increased survival. The procedure:
[The source words this procedure for another variant and reports this variant under the same test.] iPSC MN Survival assay: Fibroblasts from ALS patients with known SOD1 A4V mutation were reprogrammed into inducible pluripotent stem cells (iPSC) and then differentiated to motor neurons. In culture, ALS patient derived motor neurons show increased death rate compared to motor neurons derived from healthy individuals in a stressed condition (nutrient deprived media, Hank's buffered salt solution-HBSS).
Cell rescue was measured following more than two different concentrations of each compound for six days with greater than four replicates in a 96-well format to ensure studies with power >0.8. Cells are transduced with a GFP reporter and imaged once a day to track survival. A broad-spectrum caspase inhibitor served as the positive control.
Microscopy image-based readout: Cells are transduced with a GFP reporter and imaged once a day with a blue laser to track survival. Imagers used include the Biotek Cytation 5 and Thermo Fisher EVOS Auto FL 2. All Images undergo uniform processing consisting of rolling hat background subtraction and contrast adjustment.
Cells are identified by their shape and each cell is tracked across images and time points for each well. Survival is visually assessed from the Kaplan-Meier curves. Survival of the cells is modeled and tested using a mixed effects Cox regression where each well is modeled as the random effect, and the group (control/treatment) as the fixed effect. Hazard ratios between treatment and control are estimated within the Cox regression where a value of 1.0 denotes no change, values >1.0 indicate decreased survival in response to treatment, and values <1.0 indicate increased survival in response to treatment. Data are presented as the maximal reduction in hazard ratio scores measured at various concentrations.

The subject of experiment [3] is HEK 293T transfected with plasmids containing TDP-43 Q331K mutation. As to the kind of experiment: HEK/TDP Survival assay (Cell-Titer-Glo). It is filed as cell-based. The conditions noted are these: Homo sapiens; HEK 293T TDP-43 Q331K, 48 hrs, CTG readout. The procedure:
HEK/TDP Survival assay: Immortalized human embryonic kidney 293T (HEK 293T) were transfected with plasmids containing TDP-43 Q331K mutation, resulting in an increase in cell death that is biologically relevant to ALS patients. Cell death is measured as reductions in the amount of ATP, an indicator of metabolically active cells, that is quantified by a luminescence Cell-Titer-Glo® (CTG) reagent. Compounds are evaluated in this model for changes in CTG compared to no treatment group. Increased signal indicates improved survival (rescue) and decreased signal indicates decreased survival.
Cell rescue was measured in a 96-well format with eight different concentrations of the test compound over 48 hrs with 6 replicates. The Promega Cell-Titer-Glo® Luminescent Cell Viability Assay was used to quantify ATP, an indicator of metabolically active cells (see protocol: https://www.promega.com/-/media/files/resources/protocols/technical-manuals/101/celltiterglo-2-O-assay-protocol.pdf?la=en). The luminescence signal was detected using the PerkinElmer En Vision or Molecular Devices SpectraMax.
The effect of a compound at a given dose on cell viability was determined using a three step procedure. First, Hedge's g for the Cell Titer-Glo luminescence values using six untreated wells on every plate as a control was calculated. […] Finally, values from all compound-dose pairs were corrected for multiple hypothesis testing using the Empirical Bayes framework of Stephens, M. (False discovery rates: a new deal, Biostatistics, 18 [2], 2017, 275-294) yielding credible intervals for the measured effect and associated s values.
Briefly, this method computes a local false sign rate for each experiment. Analogous to the local false discovery rate of Efron, B. (Size, power and false discovery rates, Ann. Statist. 35 [4], 2007, 1351-1377) this value measures the confidence in the sign of each effect (rather than confidence in each effect being non-zero). The s values reported in the previous figures are the expected fraction of errors if estimating the sign of all effects with greater absolute local false sign rate, defined in analogy to the q value of Storey, JD (The positive false discovery rate: a Bayesian interpretation and the q-value, Ann. Statist. 31 [6] 2003, 2013-2035).
Drugs that yielded signed log s values greater than 3 were considered hits. This threshold was determined by a separate calibration experiment in which Cell Titer-Glo® was measured in blank plates consisting of untreated cells to assess the noise inherent in the assay. Data are presented as the maximal effect of rescue obtained from the dose-response curve.

Sequence of Full length human recombinant PIKFYVE (Q9Y2I7 whole entry): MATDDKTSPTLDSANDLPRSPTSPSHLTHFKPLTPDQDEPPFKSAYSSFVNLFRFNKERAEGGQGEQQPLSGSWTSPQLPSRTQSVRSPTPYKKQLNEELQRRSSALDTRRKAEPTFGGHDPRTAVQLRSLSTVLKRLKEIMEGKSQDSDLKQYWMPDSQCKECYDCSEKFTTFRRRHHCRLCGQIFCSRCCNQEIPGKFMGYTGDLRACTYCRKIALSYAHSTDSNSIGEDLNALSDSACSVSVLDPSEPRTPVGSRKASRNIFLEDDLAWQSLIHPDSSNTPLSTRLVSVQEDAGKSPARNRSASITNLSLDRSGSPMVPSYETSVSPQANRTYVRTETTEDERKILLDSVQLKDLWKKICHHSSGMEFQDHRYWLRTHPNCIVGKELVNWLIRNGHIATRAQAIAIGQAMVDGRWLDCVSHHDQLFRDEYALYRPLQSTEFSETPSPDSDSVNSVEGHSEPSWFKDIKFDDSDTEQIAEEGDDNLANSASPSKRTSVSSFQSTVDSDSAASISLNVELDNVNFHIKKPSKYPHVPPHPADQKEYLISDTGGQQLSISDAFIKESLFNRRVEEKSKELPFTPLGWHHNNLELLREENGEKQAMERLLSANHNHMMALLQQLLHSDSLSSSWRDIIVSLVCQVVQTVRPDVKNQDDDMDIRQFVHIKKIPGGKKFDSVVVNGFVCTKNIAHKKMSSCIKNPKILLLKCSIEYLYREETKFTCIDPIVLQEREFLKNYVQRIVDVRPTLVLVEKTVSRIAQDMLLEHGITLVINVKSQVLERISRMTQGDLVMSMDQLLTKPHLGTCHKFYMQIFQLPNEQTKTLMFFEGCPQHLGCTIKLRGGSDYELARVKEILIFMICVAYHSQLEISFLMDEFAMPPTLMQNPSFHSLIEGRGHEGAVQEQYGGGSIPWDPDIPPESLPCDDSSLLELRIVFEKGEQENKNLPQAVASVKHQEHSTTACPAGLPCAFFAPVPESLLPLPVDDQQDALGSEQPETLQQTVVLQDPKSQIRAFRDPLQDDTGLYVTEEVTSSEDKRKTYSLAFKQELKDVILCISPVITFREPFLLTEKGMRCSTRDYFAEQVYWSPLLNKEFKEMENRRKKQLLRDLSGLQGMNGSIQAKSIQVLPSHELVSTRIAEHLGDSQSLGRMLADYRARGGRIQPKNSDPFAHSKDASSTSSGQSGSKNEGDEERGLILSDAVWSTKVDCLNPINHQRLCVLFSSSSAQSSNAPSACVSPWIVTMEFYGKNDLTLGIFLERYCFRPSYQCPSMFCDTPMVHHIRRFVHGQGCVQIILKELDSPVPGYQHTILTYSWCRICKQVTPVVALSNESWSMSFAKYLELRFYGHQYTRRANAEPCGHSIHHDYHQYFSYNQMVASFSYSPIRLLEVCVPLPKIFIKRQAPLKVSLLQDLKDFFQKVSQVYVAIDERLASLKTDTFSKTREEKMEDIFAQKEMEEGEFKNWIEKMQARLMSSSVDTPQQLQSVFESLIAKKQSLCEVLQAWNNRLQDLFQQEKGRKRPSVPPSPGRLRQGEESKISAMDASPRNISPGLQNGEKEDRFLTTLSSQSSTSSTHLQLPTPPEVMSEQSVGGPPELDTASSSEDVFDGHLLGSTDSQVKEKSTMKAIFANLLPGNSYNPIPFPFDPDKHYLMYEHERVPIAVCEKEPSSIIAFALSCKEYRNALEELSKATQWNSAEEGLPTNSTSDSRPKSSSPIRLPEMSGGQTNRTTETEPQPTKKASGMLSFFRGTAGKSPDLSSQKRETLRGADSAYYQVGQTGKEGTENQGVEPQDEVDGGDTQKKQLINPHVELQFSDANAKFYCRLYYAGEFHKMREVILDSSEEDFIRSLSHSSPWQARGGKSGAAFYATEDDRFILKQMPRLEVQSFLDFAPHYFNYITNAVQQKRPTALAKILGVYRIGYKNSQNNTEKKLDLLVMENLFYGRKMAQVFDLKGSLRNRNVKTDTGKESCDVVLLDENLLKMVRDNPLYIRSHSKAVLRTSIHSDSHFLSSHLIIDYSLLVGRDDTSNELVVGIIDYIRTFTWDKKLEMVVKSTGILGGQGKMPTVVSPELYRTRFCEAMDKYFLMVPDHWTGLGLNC

As for `Cc1cccc(-c2ccn(-c3cc(N4CCOCC4)n4nc(-c5ccncc5)cc4n3)n2)c1` [Example 14, 4-[5-[3-(m-tolyl)pyrazol-1-yl]-2-(4-pyridyl)pyrazolo[1,5-a]pyrimidin-7-yl]morpholine], in experiment [1], the IC50 came out at 4.3 nM. Also, the EC50 is more than 6000 nM in experiment [2] and 144 nM in experiment [3]. In addition, the “C9 iPSC MN Survival hazard ratio” value in experiment [2] was 0.94.

Turning to `Cc1cccc(-c2ccn(-c3cc(N4CCOCC4)n4nc(-c5cccnc5)cc4n3)n2)c1` [Example 17, 4-(2-(pyridin-3-yl)-5-(3-(m-tolyl)-1H-pyrazol-1-yl)pyrazolo[1,5-a]pyrimidin-7-yl)morpholine], in experiment [1], the IC50 came out at 6.8 nM. Also, in experiment [2], the EC50 amounted to 1000 nM and the “C9 iPSC MN Survival hazard ratio” value is 0.82. Also, in experiment [3], the EC50 came to 95 nM.

Take `Cc1cccc(-c2ccn(-c3cc(N4CCOCC4)n4nc(-c5ccccn5)cc4n3)n2)c1` [Example 18, 4-(2-(pyridin-2-yl)-5-(3-(m-tolyl)-1H-pyrazol-1-yl)pyrazolo[1,5-a]pyrimidin-7-yl)morpholine]: the IC50 in experiment [1] was determined as 29.6 nM. In addition, the concentration for a half-maximal effect (EC50) in experiment [2] is 1000 nM; in experiment [3], 105 nM.

As for `Cc1cccc(-c2ccn(-c3cc(N4CCOCC4)n4nc(C(=O)NC5CC5)cc4n3)n2)c1` [Example 20, N-cyclopropyl-7-morpholino-5-(3-(m-tolyl)-1H-pyrazol-1-yl)pyrazolo[1,5-a]pyrimidine-2-carboxamide], the IC50 in experiment [1] was 30.2 nM. Further, in experiment [2], the “C9 iPSC MN Survival hazard ratio” value was determined as 0.85. Further, a half-maximal response in experiment [3] (EC50) required 103 nM.

For orientation: IC50 means the concentration at which inhibition is half-maximal. As usually defined, the EC50 is the concentration needed to bring the measured effect to its halfway point.

Source of the values: US12486274B2, “Substituted pyrazolo-pyrimidines and uses thereof” (Verge Analytics, Inc., priority 2020, dated 2025).
